Source: patent US7855166B2, “Sulfonylamino(thio)carbonyl compounds” (Bayer Cropscience GmbH, priority 2005, dated 2010)

Columns and labels:
[1] = test system: weed plants such as Sinapis alba, Chrysanthemum segetum, Avena sativa, Stellaria media, Echinochloa crus-galli, Lolium multiflorum, Setaria viridis, Abutilon …; experiment: Pre-emergence effect on weeds (greenhouse pot test, visual scoring); type: in vivo; settings: applied pre-emergence at a rate of 0.3 kg or less of active substance per hectare; scored after 3 to 4 weeks in comparison to untreated controls
[2] = test system: weed plants such as Sinapis alba, Echinochloa crus-galli, Lolium multiflorum, Chrysanthemum segetum, Setaria viridis, Abutilon theophrasti, Amaranthus …; experiment: Post-emergence effect on weeds (greenhouse pot test, visual scoring); type: in vivo; settings: applied post-emergence (three-leaf stage) at a rate of 0.3 kg or less of active substance per hectare; scored after about 3 to 4 weeks in comparison to untreated controls

Compound: CCCOc1nn(C(=O)NS(=O)(=O)c2c(I)cccc2OC(F)F)c(=O)n1C [Compound 1.464]
- herbicidal action against weed plants (visual scoring of plant damage or emergence damage) [1]: very good herbidical action
- herbicidal action against weed plants (effect scored visually) [2]: very good herbicidal action

Compound: CC(C)Oc1nn(C(=O)NS(=O)(=O)c2c(I)cccc2OC(F)F)c(=O)n1C [Compound 1.465]
- herbicidal action against weed plants (visual scoring of plant damage or emergence damage) [1]: very good herbidical action
- herbicidal action against weed plants (effect scored visually) [2]: very good herbicidal action

Compound: COc1nn(C(=O)NS(=O)(=O)c2c(I)cccc2OC(F)F)c(=O)n1C1CC1 [Compound 1.467]
- herbicidal action against weed plants (visual scoring of plant damage or emergence damage) [1]: very good herbidical action
- herbicidal action against weed plants (effect scored visually) [2]: very good herbicidal action

Compound: CCOc1nn(C(=O)NS(=O)(=O)c2c(I)cccc2OC(F)F)c(=O)n1C1CC1 [Compound 1.470]
- herbicidal action against weed plants (visual scoring of plant damage or emergence damage) [1]: very good herbidical action
- herbicidal action against weed plants (effect scored visually) [2]: very good herbicidal action

Compound: CCCOc1nn(C(=O)NS(=O)(=O)c2c(I)cccc2OC(F)F)c(=O)n1C1CC1 [Compound 1.473]
- herbicidal action against weed plants (visual scoring of plant damage or emergence damage) [1]: very good herbidical action
- herbicidal action against weed plants (effect scored visually) [2]: very good herbicidal action

Compound: COc1nn(C(=O)NS(=O)(=O)c2c(I)cccc2OCC(F)(F)F)c(=O)n1C [Compound 1.481]
- herbicidal action against weed plants (visual scoring of plant damage or emergence damage) [1]: very good herbidical action
- herbicidal action against weed plants (effect scored visually) [2]: very good herbicidal action

Compound: COc1nn(C(=O)NS(=O)(=O)c2c(I)cccc2OCC(F)(F)F)c(=O)n1C1CC1 [Compound 1.488]
- herbicidal action against weed plants (visual scoring of plant damage or emergence damage) [1]: very good herbidical action
- herbicidal action against weed plants (effect scored visually) [2]: very good herbicidal action

Compound: COc1nn(C(=O)NS(=O)(=O)c2c(I)cccc2OCC(F)F)c(=O)n1C [Compound 1.501]
- herbicidal action against weed plants (visual scoring of plant damage or emergence damage) [1]: very good herbidical action
- herbicidal action against weed plants (effect scored visually) [2]: very good herbicidal action

Compound: CCOc1nn(C(=O)NS(=O)(=O)c2c(I)cccc2OCC(F)F)c(=O)n1C [Compound 1.504]
- herbicidal action against weed plants (visual scoring of plant damage or emergence damage) [1]: very good herbidical action
- herbicidal action against weed plants (effect scored visually) [2]: very good herbicidal action

Compound: CCCOc1nn(C(=O)NS(=O)(=O)c2c(I)cccc2OCC(F)F)c(=O)n1C [Compound 1.505]
- herbicidal action against weed plants (visual scoring of plant damage or emergence damage) [1]: very good herbidical action
- herbicidal action against weed plants (effect scored visually) [2]: very good herbicidal action

Compound: CC(C)Oc1nn(C(=O)NS(=O)(=O)c2c(I)cccc2OCC(F)F)c(=O)n1C [Compound 1.506]
- herbicidal action against weed plants (visual scoring of plant damage or emergence damage) [1]: very good herbidical action
- herbicidal action against weed plants (effect scored visually) [2]: very good herbicidal action

Compound: COc1nn(C(=O)NS(=O)(=O)c2c(I)cccc2OCC(F)F)c(=O)n1C1CC1 [Compound 1.508]
- herbicidal action against weed plants (visual scoring of plant damage or emergence damage) [1]: very good herbidical action
- herbicidal action against weed plants (effect scored visually) [2]: very good herbicidal action

Compound: CCOc1nn(C(=O)NS(=O)(=O)c2c(I)cccc2OCC(F)F)c(=O)n1C1CC1 [Compound 1.511]
- herbicidal action against weed plants (visual scoring of plant damage or emergence damage) [1]: very good herbidical action
- herbicidal action against weed plants (effect scored visually) [2]: very good herbicidal action

Compound: CCCOc1nn(C(=O)NS(=O)(=O)c2c(I)cccc2OCC(F)F)c(=O)n1C1CC1 [Compound 1.514]
- herbicidal action against weed plants (visual scoring of plant damage or emergence damage) [1]: very good herbidical action
- herbicidal action against weed plants (effect scored visually) [2]: very good herbicidal action

Compound: COc1nn(C(=O)NS(=O)(=O)c2c(I)cccc2OC(C)C(F)(F)F)c(=O)n1C (stereo not shown) [Compound 1.522]
- herbicidal action against weed plants (visual scoring of plant damage or emergence damage) [1]: very good herbidical action
- herbicidal action against weed plants (effect scored visually) [2]: very good herbicidal action

Compound: CCOc1nn(C(=O)NS(=O)(=O)c2c(I)cccc2OC(C)C(F)(F)F)c(=O)n1C (stereo not shown) [Compound 1.525]
- herbicidal action against weed plants (visual scoring of plant damage or emergence damage) [1]: very good herbidical action
- herbicidal action against weed plants (effect scored visually) [2]: very good herbicidal action

Compound: CCCOc1nn(C(=O)NS(=O)(=O)c2c(I)cccc2OC(C)C(F)(F)F)c(=O)n1C (stereo not shown) [Compound 1.526]
- herbicidal action against weed plants (visual scoring of plant damage or emergence damage) [1]: very good herbidical action
- herbicidal action against weed plants (effect scored visually) [2]: very good herbicidal action

Compound: CC(C)Oc1nn(C(=O)NS(=O)(=O)c2c(I)cccc2OC(C)C(F)(F)F)c(=O)n1C (stereo not shown) [Compound 1.527]
- herbicidal action against weed plants (visual scoring of plant damage or emergence damage) [1]: very good herbidical action
- herbicidal action against weed plants (effect scored visually) [2]: very good herbicidal action

Compound: COc1nn(C(=O)NS(=O)(=O)c2c(I)cccc2OC(C)C(F)(F)F)c(=O)n1C1CC1 (stereo not shown) [Compound 1.529]
- herbicidal action against weed plants (visual scoring of plant damage or emergence damage) [1]: very good herbidical action
- herbicidal action against weed plants (effect scored visually) [2]: very good herbicidal action

Compound: CCOc1nn(C(=O)NS(=O)(=O)c2c(I)cccc2OC(C)C(F)(F)F)c(=O)n1C1CC1 (stereo not shown) [Compound 1.532]
- herbicidal action against weed plants (visual scoring of plant damage or emergence damage) [1]: very good herbidical action
- herbicidal action against weed plants (effect scored visually) [2]: very good herbicidal action

Compound: CCCOc1nn(C(=O)NS(=O)(=O)c2c(I)cccc2OC(C)C(F)(F)F)c(=O)n1C1CC1 (stereo not shown) [Compound 1.535]
- herbicidal action against weed plants (visual scoring of plant damage or emergence damage) [1]: very good herbidical action
- herbicidal action against weed plants (effect scored visually) [2]: very good herbicidal action

Compound: COc1nn(C(=O)NS(=O)(=O)c2c(I)cccc2OCC(F)(F)C(F)(F)F)c(=O)n1C [Compound 1.544]
- herbicidal action against weed plants (visual scoring of plant damage or emergence damage) [1]: very good herbidical action
- herbicidal action against weed plants (effect scored visually) [2]: very good herbicidal action

Compound: CCCOc1nn(C(=O)NS(=O)(=O)c2c(I)cccc2OCC(F)(F)C(F)(F)F)c(=O)n1C [Compound 1.549]
- herbicidal action against weed plants (visual scoring of plant damage or emergence damage) [1]: very good herbidical action
- herbicidal action against weed plants (effect scored visually) [2]: very good herbicidal action

Compound: CC(C)Oc1nn(C(=O)NS(=O)(=O)c2c(I)cccc2OCC(F)(F)C(F)(F)F)c(=O)n1C [Compound 1.550]
- herbicidal action against weed plants (visual scoring of plant damage or emergence damage) [1]: very good herbidical action
- herbicidal action against weed plants (effect scored visually) [2]: very good herbicidal action

Compound: COc1nn(C(=O)NS(=O)(=O)c2c(I)cccc2OCC(F)(F)C(F)(F)F)c(=O)n1C1CC1 [Compound 1.552]
- herbicidal action against weed plants (visual scoring of plant damage or emergence damage) [1]: very good herbidical action
- herbicidal action against weed plants (effect scored visually) [2]: very good herbicidal action

Compound: CCOc1nn(C(=O)NS(=O)(=O)c2c(I)cccc2OCC(F)(F)C(F)(F)F)c(=O)n1C1CC1 [Compound 1.555]
- herbicidal action against weed plants (visual scoring of plant damage or emergence damage) [1]: very good herbidical action
- herbicidal action against weed plants (effect scored visually) [2]: very good herbicidal action

Compound: CCCOc1nn(C(=O)NS(=O)(=O)c2c(I)cccc2OCC(F)(F)C(F)(F)F)c(=O)n1C1CC1 [Compound 1.558]
- herbicidal action against weed plants (visual scoring of plant damage or emergence damage) [1]: very good herbidical action
- herbicidal action against weed plants (effect scored visually) [2]: very good herbicidal action

Compound: COc1nn(C(=O)NS(=O)(=O)c2c(I)cccc2SC)c(=O)n1C [Compound 1.579]
- herbicidal action against weed plants (visual scoring of plant damage or emergence damage) [1]: very good herbidical action
- herbicidal action against weed plants (effect scored visually) [2]: very good herbicidal action

Compound: CCCOc1nn(C(=O)NS(=O)(=O)c2c(I)cccc2SC)c(=O)n1C [Compound 1.581]
- herbicidal action against weed plants (visual scoring of plant damage or emergence damage) [1]: very good herbidical action
- herbicidal action against weed plants (effect scored visually) [2]: very good herbicidal action

Compound: CSc1cccc(I)c1S(=O)(=O)NC(=O)n1nc(OC(C)C)n(C)c1=O [Compound 1.582]
- herbicidal action against weed plants (visual scoring of plant damage or emergence damage) [1]: very good herbidical action
- herbicidal action against weed plants (effect scored visually) [2]: very good herbicidal action

Compound: COc1nn(C(=O)NS(=O)(=O)c2c(I)cccc2SC)c(=O)n1C1CC1 [Compound 1.584]
- herbicidal action against weed plants (visual scoring of plant damage or emergence damage) [1]: very good herbidical action
- herbicidal action against weed plants (effect scored visually) [2]: very good herbicidal action

Compound: CCOc1nn(C(=O)NS(=O)(=O)c2c(I)cccc2SC)c(=O)n1C1CC1 [Compound 1.585]
- herbicidal action against weed plants (visual scoring of plant damage or emergence damage) [1]: very good herbidical action
- herbicidal action against weed plants (effect scored visually) [2]: very good herbicidal action

Compound: CCCOc1nn(C(=O)NS(=O)(=O)c2c(I)cccc2SC)c(=O)n1C1CC1 [Compound 1.586]
- herbicidal action against weed plants (visual scoring of plant damage or emergence damage) [1]: very good herbidical action
- herbicidal action against weed plants (effect scored visually) [2]: very good herbicidal action

Compound: COc1nn(C(=O)NS(=O)(=O)c2c(I)cccc2OS(C)(=O)=O)c(=O)n1C [Compound 1.711]
- herbicidal action against weed plants (visual scoring of plant damage or emergence damage) [1]: very good herbidical action
- herbicidal action against weed plants (effect scored visually) [2]: very good herbicidal action

Compound: CCOc1nn(C(=O)NS(=O)(=O)c2c(I)cccc2OS(C)(=O)=O)c(=O)n1C [Compound 1.712]
- herbicidal action against weed plants (visual scoring of plant damage or emergence damage) [1]: very good herbidical action
- herbicidal action against weed plants (effect scored visually) [2]: very good herbicidal action

Compound: CCCOc1nn(C(=O)NS(=O)(=O)c2c(I)cccc2OS(C)(=O)=O)c(=O)n1C [Compound 1.713]
- herbicidal action against weed plants (visual scoring of plant damage or emergence damage) [1]: very good herbidical action
- herbicidal action against weed plants (effect scored visually) [2]: very good herbicidal action

Compound: COc1nn(C(=O)NS(=O)(=O)c2c(I)cccc2OS(C)(=O)=O)c(=O)n1C1CC1 [Compound 1.716]
- herbicidal action against weed plants (visual scoring of plant damage or emergence damage) [1]: very good herbidical action
- herbicidal action against weed plants (effect scored visually) [2]: very good herbicidal action

Compound: CCOc1nn(C(=O)NS(=O)(=O)c2c(I)cccc2OS(C)(=O)=O)c(=O)n1C1CC1 [Compound 1.717]
- herbicidal action against weed plants (visual scoring of plant damage or emergence damage) [1]: very good herbidical action
- herbicidal action against weed plants (effect scored visually) [2]: very good herbicidal action
